Where “and” joins values, the source holds several entries; their conditions need not be identical. Identical values can stand only once. A value given as a limit tells only on which side of the number the result lay.

Results on one substance are retold here after article PMC10813753 (Biology, 2024).

Assay [1] concerns G4 Tel22 telomeric quadruplex DNA. Nature of the assay: Equilibrium dialysis (non-competition and competition), Tel22. The following applies: for Kapp (Tel22): 10 mM potassium phosphate, 100 mM KCl, pH 7.2. In kind it is binding, human. The method, then: (§1) Equilibrium dialysis experiments were conducted with unlabeled quadruplex DNA and/or with dsDNA sequences as previously reported. G4 sequence Tel22 is 5′-A(GGGTTA)3GGG-3′, and ds17 is 5′-GGG TTA CTA CGA ACT GG-3′/5′-CCA GTT CGT AGT AAC CC-3′. The buffering system employed contained 10 mM potassium phosphate buffer and 100 mM of KCl (pH = 7.2). DNA solution concentrations were determined at 90 °C through UV-visible spectrophotometry using the λmax values and extinction coefficients provided by IDT®. Extinction coefficients of TSC ligand 1 were calculated in water and in buffer in the absence and in the presence of 1% (w/v) triton X-100. Competition and non-competition dialysis experiments were carried out using the protocol described by Chaires, with minor modifications. Dialysis bags (Biotech Regenerated Cellulose (RC) membrane, part number 133192, Spectrum Laboratories, Inc., Fisher, Madrid, Spain) with a 0.2 mL volume were used, with G4 Tel22 or duplex ds17 DNA at a concentration of 75 μM, in monomeric units. The dialysis bags were placed in a beaker containing 200 mL of a solution of compound 1 (2 μM) in buffer. The beaker was sealed with Parafilm, and the solution was allowed to equilibrate at room temperature (22 °C) for 24 h with continuous stirring. Then, the contents of the dialysis bags were transferred into microcentrifuge tubes, and triton X-100 was added (1% (w/v) final concentration). After 2 h equilibration at room temperature, the total concentration of the ligand (Ct) was determined using UV-visible spectroscopy. The concentration of free compound 1 (Cf) was also determined spectrophotometrically from the dialysate solution. The concentration of the DNA-bound compound (Cb) was then calculated using the equation Cb = Ct − Cf, and Kapp was determined.
Assays were performed at room temperature with ~2 μM solutions of 1, equilibrated with 75 μM (in monomeric units, tetrads or base pairs, respectively) of the tested DNA sequence for 24 h, in a buffer containing 100 mM KCl. Afterwards, the surfactanct triton X-100 was added to the solutions contained in the dialysis bags, and the recording of the UV-visible spectra was used to determine the concentrations of free and DNA-bound ligands for each situation: Tel22, ds17 or competition experiment Tel22-ds17. The concentration of DNA-bound ligand was determined based on at least two different experiments performed in duplicate or triplicate. […]

A further assay has as its system ds17 duplex DNA. In words: Equilibrium dialysis (non-competition and competition), ds17. In kind it is binding. The settings on record: for Kapp (ds17): 10 mM potassium phosphate, 100 mM KCl, pH 7.2. The method, then:
as §1, with “Then, the contents of the dialysis bags were transferred into microcentrifuge tubes, and triton X-100 was added (1% (w/v) final concentration).” left out
Assays were performed at room temperature with ~2 μM solutions of 1, equilibrated with 75 μM (in monomeric units, tetrads or base pairs, respectively) of the tested DNA sequence for 24 h, in a buffer containing 100 mM KCl. […] The concentration of DNA-bound ligand was determined based on at least two different experiments performed in duplicate or triplicate. […]
A general note: Equilibrium dialysis compares concentrations on both sides of a semipermeable membrane.

In assay [2] the test system is PC-3 cells (prostate tumor). In words: MTT viability assay PC-3. The settings on record: for selectivity index (SI), prostate tumor PC3 versus prostate non-tumor RWPE-1: from MTT IC50 values. In kind it is cell-based, human. How it is done: (§2) A panel of five tumor cell lines and two normal cell lines was used to preliminarily test the cytotoxicity of compounds 1–4, and the experiments were conducted as previously reported. All human cell lines were acquired from American Type Culture Collection (ATCC): tumor PC-3 and DU145 (prostate), HeLa (cervix), MCF7 (breast) and HT29 (colorectal) and healthy HFF-1 (fibroblast) and RWPE-1 (prostate). The cell catalogue reference and culture media used in the experiments were CRL-1435^TM, RPMI (PC-3), HTB-81™, RPMI (DU145), CCL-2^TM, DMEM (HeLa), HTB-22^TM, DMEM (MCF-7), HTB-38^TM, modified McCoy’s 5a medium, Catalogue No. 30-2007 (HT29), SCRC-1041^TM, DMEM (HFF-1) and CRL-11609^TM, Keratinocyte-SFM (RWPE-1). Culture media were purchased from Merck: RPMI-1640, DMEM + 10% FBS (Fetal Bovine Serum) + […] (penicillin/streptomycin/amphotericin B). Media and supplements for RWPE-1 were from ThermoFisher (17005075, Madrid, Spain). MCF7 cells were additionally supplemented with insulin (0.001 mg/mL in 500 mL media). Cells were kept at 37 °C (5% CO2), and culture media were renewed three times per week. When the cells reached 80–100% confluence, they were trypsinized and centrifuged, and the concentration was adjusted to each experiment. Cells were seeded at a density of ~10,000 cells/well into 24-well plates. The cells were treated with ligands 1–4 or the cytotoxic agents PhenQE8, PhenDC3 or cisplatin at different concentrations (10 nM–100 μM). Compound solutions were freshly prepared using the appropriate culture medium. Triplicate experiments were run. For MTT viability assays, after 72 h incubation, 50 μL of MTT (5 mg/mL) was added, and an additional incubation of 4 h was allowed. The medium in each well was then replaced by DMSO, and the absorbance was measured at 570 nm using an ELISA plate reader. Absorbances were normalized using negative controls (untreated cells, in triplicate, with a maximum of 0.9% DMSO content). Dose–response curves were obtained by plotting the percentage of viable cells versus logarithmic compound concentration. IC50 values were determined using Kaleidagragh^TM (3.52) software by adjusting the data to Equation 1/(1 + 10^(m2*(log(m1) − x))); m1 = 0.000003; m2 = 1.
On the technique in general: Formazan colour is commonly taken as a measure of viable cells.

Assay [3] has as its system DU145 cells (prostate tumor). In words: MTT viability assay DU145. In kind it is cell-based, human. The following applies: 72 h. The method, then: as §2
The next assay deals with HeLa cells (cervix). In words: MTT viability assay HeLa. The class given is cell-based, human. The settings on record: 72 h. How it is done:
as §2

Another assay relates to MCF-7 cells (breast). Nature of the assay: MTT viability assay MCF-7. In kind it is cell-based, human. The settings on record: 72 h. The method, then: as §2
The next assay has as its system HT29 cells (colorectal). Nature of the assay: MTT viability assay HT29. The settings on record: 72 h. In kind it is cell-based, human. The method, then:
as §2, with “Dose–response curves were obtained by plotting the percentage of viable cells versus logarithmic compound concentration.” left out

The test system of assay [4] is HFF-1 cells (healthy fibroblasts). Nature of the assay: MTT viability assay HFF-1. In kind it is cell-based, human. The following applies: 72 h. The method, then:
as §2

The test system of assay [5] is RWPE-1 cells (healthy prostate). In words: MTT viability assay RWPE-1. In kind it is cell-based, human. The settings on record: 72 h. How it is done:
as §2

The mark [6] stands for this setting: competition dialysis (1 + Tel22 + ds17).
Where [7] appears, read: order of magnitude, equilibrium dialysis.

Turning to “2,2′-(1,10-Phenanthroline-2,9-diyl)-bis(methylene)-bis(hydrazine-1-carbothioamide) [compound 1]”, the “Kapp (Tel22)” value in [1] (setting [6]) was 1.2 ± 0.1 (M^−1) × 10^−5; in assay [1] (non-competition dialysis (1 + Tel22), apparent association constant, order 10^5 M^−1) it was 1.1 ± 0.1 (M^−1) × 10^−5. Also, the “binding selectivity Kapp (Tel22)/Kapp (ds17)” value in assay [1] (competitive assay) is given as ~24 fold. In addition, the “apparent association constant to telomeric quadruplex” value in assay [1] (setting [7]) is reported as ~10^5 M^−1. Besides, the “Kapp (ds17)” value in the assay with ds17 duplex DNA (setting [6]) is 0.05 ± 0.01 (M^−1) × 10^−5; in the assay on ds17 duplex DNA (non-competition dialysis (1 + ds17)) it was 0.06 ± 0.01 (M^−1) × 10^−5. For the same substance, the “apparent association constant to dsDNA ds17” value in the assay with ds17 duplex DNA (setting [7]) was ~10^3 M^−1 and ~ 5 × 10^3 M^−1. Besides, the concentration for half-maximal inhibition (IC50) (as a rule, the point on the concentration scale where inhibition reaches its midpoint) in assay [2] (MTT, 72 h) is 18 µM and 18.4 µM; in [3] it was 62.2 ± 5.9 µM; with HeLa cells (cervix), ~100 µM; with MCF-7 cells (breast), 78.4 ± 11 µM; in the assay with HT29 cells (colorectal), > 100 µM; in [4], 74.4 ± 3.1 µM. Besides, 90.8 ± 8.8 µM corresponded to half-maximal inhibition in assay [5] (IC50). Besides, the figures for the “selectivity index (SI), prostate tumor PC3 versus prostate non-tumor RWPE-1” value in assay [2] and in assay [2] (listed as neutral derivative) were 5 and ~ 5, respectively.
